Results from patent US5736629A, “Herbicide resistant rice” (priority 1997, dated 1998).

Key:
[1] = test system: other anther-culture progeny rows of Mercury//Lemont/Mercury rice; assay: Open-field spray screen of anther-culture progeny rows, all other rows; format: in vivo
Protocol: This resistant line was derived by conducting anther culture on the F2 progeny of a backcross made by pollinating a rice plant of the variety "Lemont" with pollen from the rice variety "Mercury," followed by a backcross using pollen from this hybrid to pollinate a plant of the variety "Mercury." The resulting backcross is described as Mercury//Lemont/Mercury. Anthers collected from a plant resulting from this backcross were plated on callus induction medium, and the resulting calli were transferred to plant regeneration media. The procedures used were generally as described in Croughan and Chu, "Rice (Oryza saliva L.): Establishment of Callus Cultures and the Regeneration of Plants" in Bajaj (Ed.), "Biotechnology in Agriculture and Forestry," pp. 19-37 (1991). Several regenerated plants were produced and grown to maturity in a greenhouse to produce seed. Progeny seed were planted in an open field, and herbicide applications were made using a garden tractor-mounted spray rig.
A set of 4,193 progeny rows derived from this anther culture procedure were planted in an open field, and were sprayed with 4 ounces per acre of Pursuit (1.00 ounce active ingredient imazethapyr per acre) at the four-leaf stage of seedling development. […]

[2] = test system: Resistant F3 Hybrid of ATCC 75295 and ATCC 97523; assay: Greenhouse test of plant vigor after imazethapyr, resistant F3 hybrid; format: in vivo, rice; settings: for Rating of rice plant vigor: 36 days after treatment at 2-3 leaf stage, 10-point scale, 0 = dead plant, 10 = no visible injury
Text: (§1) In the greenhouse tests, pots were planted with F3 seed from crosses between the two lines. Each pot was planted with seed from a single panicle from a single plant; each pot was therefore the equivalent of a headrow. A total of 140 pots were planted in this manner, along with 40 pots of various non-resistant genotypes for comparison. Imazethapyr was applied at the 2-3 leaf stage two weeks after planting, at rates equivalent to 0.063 lb. active ingredient (a.i.) per acre, 0.125 lb. a.i./acre, and 0.313 lb. a.i./acre.
Because the material being tested was an F3 population, with genes still segregating, individual plants had different levels of resistance. At the time this patent application is being filed, there had not been sufficient time to raise rice lines that were demonstrably homozygous for both resistance mechanisms. Raising such demonstrably homozygous lines will be routine for one of ordinary skill in the art, but will require additional time.
(§2) Table 2 summarizes measurements taken 36 days after spraying rice at the 2-3 leaf stage of development.

[3] = test system: rice line ATCC 97523 (second resistance mechanism only); assay: Greenhouse test of plant vigor after imazethapyr, ATCC 97523; format: in vivo; settings: for Rating of rice plant vigor: 36 days after treatment at 2-3 leaf stage, 10-point scale, 0 = dead plant, 10 = no visible injury
Text: as §1, §2

[4] = target: T1, AHAS (acetohydroxyacid synthase) in enzyme extracts from rice line ATCC 75295 (Oryza sativa subsp. japonica, UniProt Q6K2E8); assay: AHAS enzyme assay, extract from rice line ATCC 75295; format: biochemical
T1 construct: 40.0 grams (fresh weight) of tissue were extracted in the same manner for each of the three varieties; from tissue; host or cells: stem tissue of greenhouse-grown rice seedlings, line ATCC 75295 (leaf blades removed)
T1 sequence (Q6K2E8 40-644 limits assumed): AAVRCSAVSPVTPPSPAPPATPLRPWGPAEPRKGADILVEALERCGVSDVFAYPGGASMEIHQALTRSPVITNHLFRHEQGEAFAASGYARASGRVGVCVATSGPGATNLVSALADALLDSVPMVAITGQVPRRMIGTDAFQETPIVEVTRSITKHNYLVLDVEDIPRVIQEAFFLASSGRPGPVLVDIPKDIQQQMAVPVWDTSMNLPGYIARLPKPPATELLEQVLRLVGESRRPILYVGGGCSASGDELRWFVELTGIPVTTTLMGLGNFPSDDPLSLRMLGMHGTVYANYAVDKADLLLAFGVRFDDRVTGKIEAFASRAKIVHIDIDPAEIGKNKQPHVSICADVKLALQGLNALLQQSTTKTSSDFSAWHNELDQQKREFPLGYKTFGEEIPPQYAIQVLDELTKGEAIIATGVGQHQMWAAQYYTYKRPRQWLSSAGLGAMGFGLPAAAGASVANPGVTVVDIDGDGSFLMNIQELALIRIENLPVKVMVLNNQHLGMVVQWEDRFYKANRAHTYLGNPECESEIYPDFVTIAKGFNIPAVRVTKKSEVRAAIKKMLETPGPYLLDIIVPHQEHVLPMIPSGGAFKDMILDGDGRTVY
Text: (§3) The herbicide resistance of the AHAS enzyme from the ATCC 75295 rice line was compared to the resistance of the AHAS enzymes from the rice varieties "Lemont" and "Mercury," the varieties that were the ancestors of this rice line. The procedures used to assay the activity of acetohydroxyacid synthase were substantially as described in B. K. Singh et al., "Assay of Acetohydroxyacid Synthase," Analytical Biochemistry, vol. 171, pp. 173-179 (1988), except as noted. In the first paragraph of Singh's "Materials and Methods," instead of corn suspension culture cells, stem tissues from greenhouse-grown rice seedlings at the four-leaf stage of development were used. Leaf blades were removed, and 40.0 grams (fresh weight) of tissue were extracted in the same manner for each of the three varieties. […] Pursuit herbicide (imazethapyr) was included in the "standard reaction mixture" for the AHAS assay in the concentrations indicated in Table 1 below. Checks were made of direct acetoin formation during the enzyme assay. Each treatment was conducted with two replicates.

[5] = target: T2, AHAS (acetohydroxyacid synthase) in enzyme extracts from normal rice variety Mercury (Oryza sativa subsp. japonica, UniProt Q6K2E8); assay: AHAS enzyme assay, extract from rice variety Mercury; format: biochemical
T2 construct: 40.0 grams (fresh weight) of tissue were extracted in the same manner for each of the three varieties; from tissue; host or cells: stem tissue of greenhouse-grown rice seedlings, variety Mercury (leaf blades removed)
T2 sequence (Q6K2E8 40-644 limits assumed): T1 sequence (Q6K2E8 40-644 limits assumed)
Text: as §3

CCc1cnc(C2=NC(C)(C(C)C)C(=O)N2)c(C(=O)O)c1 (racemic) [imazethapyr, (±)-2-[4,5-dihydro-4-methyl-4-(1-methylethyl)-5-oxo-1H-imidazol-2-yl]-5-ethyl-3-pyridinecarboxylic acid]
Symptoms (in words) ([1]; 4 ounces per acre Pursuit (1.00 ounce a.i. per acre), four-leaf stage, open field): injured or killed | Symptoms (in words) ([1]; second spray 8 ounces/acre Pursuit (2.00 ounce a.i. per acre), four weeks after the initial treatment, rows that survived the initial spraying): lethal | Rating of rice plant vigor ([2]; 0.063 lb. a.i./acre): 10 | Rating of rice plant vigor ([2]; 0.125 lb. a.i./acre): 10 | Rating of rice plant vigor ([2]; 0.313 lb. a.i./acre): 10 | Tolerance (in words) ([2]; F3 plants that inherited both resistance mechanisms, up to 0.313 lb. a.i. per acre): tolerance to all levels of herbicide tested | Visible injury (in words) ([2]; plants with both resistance mechanisms, 0.313 pounds active ingredient per acre, 36 days after treatment): no visible injury | Time to visible resumption of growth after herbicide application ([2]; resistant F3 plants, greenhouse test): about a week | Rating of rice plant vigor ([3]; 0.063 lb. a.i./acre): 9.01 ± 0.59 | Rating of rice plant vigor ([3]; 0.125 lb. a.i./acre): 5.71 ± 0.93 | Rating of rice plant vigor ([3]; 0.313 lb. a.i./acre): about 4.0 | Rating of rice plant vigor ([3]; 0.313 lb. a.i./acre, listed as Imazethapyr): 4.00 ± 0.32 | Time to visible resumption of growth after herbicide application ([3]; ATCC 97523 plants, greenhouse test): about two weeks | Visible injury (in words) ([3]; plants with only the second resistance mechanism, 0.313 lb a.i./acre, 36 days after treatment): substantial injury | activity at 0.1 µM ([4]; imazethapyr 0.1 μM): 102% | activity at 1 µM ([4]; imazethapyr 1 μM): 89% | activity at 10 µM ([4]; imazethapyr 10 μM): 61% | activity at 100 µM ([4]; imazethapyr 100 μM): 48% | activity at 0.1 µM ([5]; imazethapyr 0.1 μM): 100% | activity at 1 µM ([5]; imazethapyr 1 μM): 89% | activity at 10 µM ([5]; imazethapyr 10 μM): 64% | activity at 100 µM ([5]; imazethapyr 100 μM): 62%
